Where no end group is shown, it is not given here.
What was measured:
Format in all cases: cell-based, human
[1] = tested on: DLD1 and SW480 cells; test: ES2 viability (MTS) in TP53 mutant colorectal cancer cell lines; details: DLD1 (S241F heterozygous), SW480 (R273H, P309S)
Protocol: Cell lines were treated with chemotherapy, doxorubicin (Sigma, Cat. No. 2252) to induce senescence (200 nM for HCT116, 100 nM for B16-F10 and MCF7, 50 nM for SW480 and DLD-1, 40 nM for A375-Luc/iRFP and MCF10a). MCF7 cells were treated with CDK4/6 inhibitor, palbociclib (Selleck Chemicals: S1116) to induce senescence (5 µM). A375 cells were treated with Braf inhibitor, Dabrafenib (Selleck Chemicals: S2807), to induce senescence (10 µM). Peptide efficacy experiments were performed by seeding 10,000 – 20,000 cells in a 96-well plate. The cells were given doxorubicin twice to make the cells senescent. After removal of doxorubicin, the plate was treated with varying concentrations of peptide. The peptide was replenished daily for two days. Cellular proliferation was quantified using the Promega CellTiter 96™ AQueous One Solution Cell Proliferation Assay (MTS) after 2 hours according to the manufacturer's protocol (Promega, G3581). To control for the charge of ES2, ProteoJuice (Millipore Sigma, 71281) was used to deliver ES2 using the manufacturers protocol, except 50 µL of 2 mM ES2 was mixed with 25 µL of ProteoJuice. Varying concentrations of the mixture were administered to A375 cells along with a control of only ProteoJuice.

[2] = tested on: FOXO4-TP53 foci; test: Proximity Ligation Assay; details: 8 µM ES2, 1 hour
Protocol: Senescent and dividing A375 cells were plated in 96-well plates (Cellvis P96-1.5P) at concentration of 20,000 cells per well. The following day, the cells were treated with 8 µM ES2 for 0, 1, and 4 hours. The plate was then fixed with 4% paraformaldehyde for 10 minutes at room temperature. Cells were washed with PBS twice then permeabilized with 0.1% Triton™ X-100 in PBS for 15 minutes. The duolink® In Situ Red Starter Kit Mouse/Rabbit was then used according to manufacturer's protocol with exception of 1:10 dilution of PLUS and MINUS PLA probes. Primary antibodies used were FOXO4 (Cell Signaling Technology Cat# 9472, RRID:AB_10831833, diluted 1:1000), TP53BP1 (BD Biosciences Cat# 612523, RRID:AB_399824, diluted 1:2000), and TP53 (Santa Cruz Cat# sc-126, RRID:AB_628082, diluted 1:500). Z-stacks with 0.34 um steps were captured on a Zeiss Axio Observer Z.1 inverted microscope using a Plan-Apochromat 40 × 0.95 NA lens. The system is setup for widefield fluorescence imaging using a Colibri 7 LED source and a Hamamatsu Orca-flash 4.0 LT black and white camera. The widefield z-stacks were flattened into maximum intensity projections as a pre-processing step before the analysis. Fluorescent foci were counted using the Zeiss Zen software Analysis feature. Briefly, the DAPI staining was used to define the nuclear regions. […] The total number of foci per nucleus was recorded.

[3] = tested on: PMAIP1 (NOXA) and BBC3 (PUMA); test: ddPCR of TP53 target genes
Protocol: Primers and probes were designed specifically for ddPCR for human BBC3 (Bio-Rad Cat# 10031255, Assay ID dHsaCPE5034069) and PMAIP1(Bio-Rad Cat# 10031252, Assay ID dHsa5037552) genes. RNA was extracted using the Qiagen RNeasy Kit (Cat# 74004). 5 ng of RNA was used for 22 µl PCR reaction mixtures using the One-Step RT-ddPCR Advanced Kit for Probes (Bio-Rad Cat# 1864022) following the manufacturer's protocol. ddPCR droplets were generated using the Bio-Rad Automated Droplet Generator. Plate containing ddPCR droplets was sealed and RT-PCR was performed using the C-1000 Thermal Cycler (Bio-Rad). ddPCR was performed in the QX200 Droplet Digital PCR System (Bio-Rad). Analysis of the ddPCR data was performed using QX200 analysis software.

For “PRKGGRRRRAWGRRRRRRRRRRRRRRAPRKRLTLA [ES2]”, the “cell death in senescent TP53 mutant cells” value [1] was “effective at inducing cell death in senescent cells”, the “effect on FOXO4-TP53 foci in dividing cells” value ([2]; dividing A375 cells) was “no effect on FOXO4-TP53 foci in dividing cells” and the “reduction of FOXO4-TP53 foci in senescent cells” value ([2]; senescent A375 cells) was 2 fold. For the same sequence, the “NOXA and PUMA levels in senescent cells” value ([3]; 30 minutes after ES2 treatment, n=6, p<0.001) was “significant increase in levels” and the “NOXA and PUMA levels in dividing cells” value ([3]; dividing cells) was “no response”.
